Results: ChEMBL document CHEMBL3826948, “Alkyl substituted aminal derivatives of HCV NS5A inhibitor MK-8742” (Bioorg Med Chem Lett, 2016)
pEC50: −log10 of the molar value.

Legend:
[1] = Cmax in Sprague-Dawley rat at 10 mg/kg, po; format: ADME, organism-based; design: dose 10 mg/kg, route oral; conditions: in vivo
[2] = Inhibition of NS5A in HCV genotype 1a assessed as replicon RNA levels by real time PCR based cell based assay; design: species or system Hepatitis C virus subtype 1a; conditions: Hepatitis C virus
[3] = Inhibition of NS5A in HCV genotype 1b assessed as replicon RNA levels by real time PCR based cell based assay; design: species or system Hepatitis C virus subtype 1b; conditions: Hepatitis C virus
[4] = Inhibition of NS5A in HCV genotype 2a assessed as replicon RNA levels by real time PCR based cell based assay; design: species or system Hepatitis C virus subtype 2a; conditions: Hepatitis C virus
[5] = Inhibition of NS5A in HCV genotype 2b assessed as replicon RNA levels by real time PCR based cell based assay; design: species or system Hepatitis C virus subtype 2b; conditions: Hepatitis C virus
[6] = Inhibition of NS5A in HCV genotype 3a assessed as replicon RNA levels by real time PCR based cell based assay; design: species or system Hepatitis C virus subtype 3a; conditions: Hepatitis C virus
[7] = Inhibition of NS5A in HCV genotype 4a assessed as replicon RNA levels by real time PCR based cell based assay; design: species or system Hepatitis C virus subtype 4a; conditions: Hepatitis C virus
[8] = AUC in Sprague-Dawley rat at 10 mg/kg, po; format: ADME, organism-based; conditions: in vivo
[9] = Half life in Sprague-Dawley rat at 10 mg/kg po or 2 mg/kg iv; format: ADME, organism-based; conditions: in vivo
[10] = Clearance in Sprague-Dawley rat at 10 mg/kg po or 2 mg/kg iv; format: ADME, organism-based; conditions: in vivo
[11] = Oral bioavailability in Sprague-Dawley rat at 10 mg/kg; format: ADME, organism-based; conditions: in vivo
[12] = AUC in Sprague-Dawley rat at 5 mg/kg, po; format: ADME, organism-based; conditions: in vivo
[13] = Cmax in Sprague-Dawley rat at 5 mg/kg, po; format: ADME, organism-based; design: dose 5 mg/kg, route oral; conditions: in vivo
[14] = Half life in Sprague-Dawley rat at 5 mg/kg po or 2 mg/kg iv; format: ADME, organism-based; conditions: in vivo
[15] = Clearance in Sprague-Dawley rat at 5 mg/kg po or 2 mg/kg iv; format: ADME, organism-based; conditions: in vivo
[16] = Oral bioavailability in Sprague-Dawley rat at 5 mg/kg; format: ADME, organism-based; conditions: in vivo
[17] = Inhibition of NS5A in HCV genotype 1a; design: species or system Hepatitis C virus subtype 1a
[18] = Inhibition of NS5A in HCV genotype 1b; design: species or system Hepatitis C virus subtype 1b
[19] = Inhibition of NS5A in HCV genotype 2a; design: species or system Hepatitis C virus subtype 2a
[20] = Inhibition of NS5A in HCV genotype 2b; design: species or system Hepatitis C virus subtype 2b
[21] = Inhibition of NS5A in HCV genotype 3a; design: species or system Hepatitis C virus subtype 3a
[22] = Inhibition of NS5A in HCV genotype 4a; design: species or system Hepatitis C virus subtype 4a
[23] = biological target: Nonstructural protein 5A (Hepatitis C virus, UniProt Q5L478, Y93H); experiment: Inhibition of NS5A in HCV genotype 1a Y93H mutant; design: species or system Hepatitis C virus subtype 1a
Chain of Nonstructural protein 5A (Hepatitis C virus, UniProt Q5L478, Y93H) (Q5L478 entry or part of it Y93H): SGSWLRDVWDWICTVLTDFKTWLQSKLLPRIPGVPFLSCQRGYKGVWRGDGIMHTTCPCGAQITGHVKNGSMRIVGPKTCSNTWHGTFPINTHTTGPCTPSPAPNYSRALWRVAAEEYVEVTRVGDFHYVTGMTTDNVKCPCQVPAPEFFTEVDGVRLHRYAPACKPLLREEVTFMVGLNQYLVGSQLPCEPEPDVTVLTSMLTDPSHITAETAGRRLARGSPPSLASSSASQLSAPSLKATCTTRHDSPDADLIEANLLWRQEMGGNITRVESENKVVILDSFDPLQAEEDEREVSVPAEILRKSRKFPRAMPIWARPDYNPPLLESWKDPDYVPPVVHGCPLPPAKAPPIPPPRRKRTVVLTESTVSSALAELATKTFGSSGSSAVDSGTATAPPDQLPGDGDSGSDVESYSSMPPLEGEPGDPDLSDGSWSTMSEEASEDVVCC

[24] = biological target: Nonstructural protein 5A (Hepatitis C virus, UniProt Q5L478, L31V); experiment: Inhibition of NS5A in HCV genotype 1a L31V mutant; design: species or system Hepatitis C virus subtype 1a

SMILES | pEC50 [2] | pEC50 [3] | pEC50 [4] | pEC50 [5] | pEC50 [6] | pEC50 [7] | other results
COC(=O)N[C@H](C(=O)N1CCC[C@H]1c1ncc(-c2ccc3c(c2)OC(C)n2c-3cc3cc(-c4cnc([C@@H]5CCCN5C(=O)[C@@H](NC(=O)OC)C(C)C)[nH]4)ccc32)[nH]1)C(C)C (some centres not stated) | 11.52 | 11.52 | 11.15 | 7.64 | 10.05 | 10.52 | Cmax [1]: 990 nM; AUC [8]: 6.2 µM·h; half-life [9]: 132 min; clearance [10]: 8.5 mL/min/kg; bioavailability [11]: 26%
CCC1Oc2cc(-c3cnc([C@@H]4CCCN4C(=O)[C@@H](NC(=O)OC)C(C)C)[nH]3)ccc2-c2cc3cc(-c4cnc([C@@H]5CCCN5C(=O)[C@@H](NC(=O)OC)C(C)C)[nH]4)ccc3n21 (some centres not stated) | 11.70 | 11.70 | 12.00 | 8.70 | 9.52 | 10.40 | AUC [12]: 8.4 µM·h; Cmax [13]: 1220 nM; half-life [14]: 216 min; clearance [15]: 5.2 mL/min/kg; bioavailability [16]: 43%
COC(=O)N[C@H](C(=O)N1CCC[C@H]1c1ncc(-c2ccc3c(c2)OCn2c-3cc3cc(-c4cnc([C@@H]5CCCN5C(=O)[C@@H](NC(=O)OC)C(C)C)[nH]4)ccc32)[nH]1)C(C)C |  |  |  |  |  |  | pEC50 [17]: 11.00; pEC50 [18]: 11.10; pEC50 [19]: 11.15; pEC50 [20]: 7.51; pEC50 [21]: 9.30; pEC50 [22]: 10.22; pEC50 [23]: 7.00; pEC50 [24]: 8.52
COC(=O)N[C@H](C(=O)N1CCC[C@H]1c1ncc(-c2ccc3c(c2)OC(C2CC2)n2c-3cc3cc(-c4cnc([C@@H]5CCCN5C(=O)[C@@H](NC(=O)OC)C(C)C)[nH]4)ccc32)[nH]1)C(C)C (some centres not stated) | 11.52 | 11.40 | 11.70 | 9.00 | 10.00 | 10.70 | AUC [12]: 4.4 µM·h; Cmax [13]: 740 nM; half-life [14]: 204 min; clearance [15]: 6.2 mL/min/kg; bioavailability [16]: 27%
COC(=O)N[C@H](C(=O)N1CCC[C@H]1c1ncc(-c2ccc3c(c2)OC(C2CCC(F)(F)CC2)n2c-3cc3cc(-c4cnc([C@@H]5CCCN5C(=O)[C@@H](NC(=O)OC)C(C)C)[nH]4)ccc32)[nH]1)C(C)C (mixture of isomers) | 11.70 | 12.10 | 11.15 | 8.40 | 9.10 | 10.15 | 
COC(=O)N[C@H](C(=O)N1CCC[C@H]1c1ncc(-c2ccc3c(c2)OC(C2CCC2)n2c-3cc3cc(-c4cnc([C@@H]5CCCN5C(=O)[C@@H](NC(=O)OC)C(C)C)[nH]4)ccc32)[nH]1)C(C)C (mixture of isomers) | 11.10 | 11.30 | 11.22 | 8.05 | 9.00 | 10.22 | 
COC(=O)N[C@H](C(=O)N1CCC[C@H]1c1ncc(-c2ccc3c(c2)OC(CC(C)C)n2c-3cc3cc(-c4cnc([C@@H]5CCCN5C(=O)[C@@H](NC(=O)OC)C(C)C)[nH]4)ccc32)[nH]1)C(C)C (mixture of isomers) | 12.10 | 12.15 | 11.10 | 8.00 | 9.40 | 10.70 | 
COC(=O)N[C@H](C(=O)N1CCC[C@H]1c1nc(-c2ccc3c(c2)O[C@@H](c2ccccc2)n2c-3cc3cc(-c4c[nH]c([C@@H]5CCCN5C(=O)[C@@H](NC(=O)OC)C(C)C)n4)ccc32)c[nH]1)C(C)C [ELBASVIR] |  |  |  |  |  |  | pEC50 [17]: 11.40; pEC50 [18]: 11.52; pEC50 [19]: 11.52; pEC50 [20]: 8.52; pEC50 [21]: 10.70; pEC50 [22]: 11.52; pEC50 [23]: 8.70; pEC50 [24]: 9.30
